Like-named read-outs stand apart in the source and are kept apart here.
What was measured:
uveitis [1] = assay: Prevention of experimental uveitis by oral administration in the rat uveitis model; assay type: in vivo; conditions: oral administration to experimental animals; conjugate vs peptide alone p<0.0001
PBMC [2] = assay type: cell-based, human
PBMC [3] = assay type: cell-based, human; conditions: for concentration of IFN-γ: relapsed group
uveitis [4] = conditions: cited from earlier work
[5] = before tolerising regime, 3 patients with relapsing uveitis

## QPHDLGKVGEVIVTKD [p336-351]
Uveitis [1]
  development of uveitis: 65.8%
  development of uveitis (animals with uveitis / total): 48/73
PBMC [2]; [5]
  stimulation index (SI), individual patients: > 2
  stimulation index (SI), mean±sem: 4.1±0.8
PBMC [2]; before tolerising regime, 5 patients in whom uveitis was prevented
  stimulation index (SI), mean±sem: 1.25±0.1
PBMC [2]; prevented group, 3 months after tolerising regime started, immunosuppressive drugs tailed off
  stimulation index (SI), mean: 2.3±0.6
PBMC [2]; relapsing group, 1-2 months after tolerising regime initiated, immunosuppressive doses decreased
  stimulation index (SI), mean: 23.2 (±14.8)
PBMC [3]; patients in whom uveitis was prevented, before and 3 months after immunosuppressive drugs withdrawn
  production of IFN-γ: negligible
PBMC [3]; protected patients
  TNF-α concentrations: negligible
PBMC [3]; 1-2 months after tolerisation initiated, unstimulated 1665±1111 pg/ml
  concentration of IFN-γ: 4723 (±2639) pg/ml
PBMC [3]; before tolerisation, unstimulated 504±411 pg/ml
  concentration of IFN-γ: 758 ± 636 pg/mL
PBMC [3]; relapsing patients, mostly 1-2 months after tolerisation
  TNF-α concentrations: increased levels
Uveitis [4]; Lewis rats, subcutaneously with an adjuvant, Uchio et al 1998
  induction of uveitis: uveitis can be induced
Uveitis [4]; oral or nasal administration, Hu et al 1998
  induction of uveitis or tolerance: induced uveitis instead of tolerance
Uveitis [4]; rats, Stanford et al 1994
  uveitogenicity when administered to rats: most effective

— patent publication US20040265341A1, “Prevention of uveitis” (Kings College London, priority 2003, published 2004)
